Assay results from article PMC5909127, “Optimization of a “bump-and-hole” approach to allele-selective BET bromodomain inhibition” (Chemical Science, 2018).

Tests used:
[1] = molecular target: WT BET bromodomains (BD1 and BD2 of BRD2, BRD3 and BRD4); experiment: competitive AlphaLISA (Bio-JQ1 displacement); assay type: binding, human; conditions: mean and SD of all somatic bromodomains; active enantiomer concentration
[2] = test system: L/V BET bromodomains (BD1 and BD2 of BRD2, BRD3 and BRD4); experiment: competitive AlphaLISA (Bio-JQ1 displacement); assay type: binding, human; conditions: for AlphaLISA pIC50 ± SD Δ: L/V minus WT; for AlphaLISA pIC50 ± SD L/V: mean and SD of all somatic bromodomains, active enantiomer concentration
BRD2 BD1 WT [3] = molecular target: T1, BRD2 BD1 WT (Homo sapiens, UniProt P25440); experiment: competitive AlphaLISA; assay type: binding
T1 sequence (P25440 71-176): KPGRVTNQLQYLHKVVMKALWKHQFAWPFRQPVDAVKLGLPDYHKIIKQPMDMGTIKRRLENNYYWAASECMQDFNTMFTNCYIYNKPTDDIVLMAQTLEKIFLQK

BRD2 BD1 L/V [4] = molecular target: T2, BRD2 BD1 L/V (Homo sapiens, UniProt P25440, L110V); experiment: competitive AlphaLISA; assay type: binding
T2 sequence (P25440 71-176 L110V limits assumed): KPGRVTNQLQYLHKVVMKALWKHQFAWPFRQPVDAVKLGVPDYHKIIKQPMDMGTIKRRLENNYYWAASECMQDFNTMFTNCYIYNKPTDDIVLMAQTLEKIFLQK

BRD2 BD2 WT = BRD2 BD2 WT (Homo sapiens, UniProt P25440); experiment: competitive AlphaLISA; assay type: binding
Sequence of BRD2 BD2 WT (P25440 344-455): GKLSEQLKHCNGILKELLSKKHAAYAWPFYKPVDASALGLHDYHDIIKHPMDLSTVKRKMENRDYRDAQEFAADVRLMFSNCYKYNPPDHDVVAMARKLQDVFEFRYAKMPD

BRD2 BD2 L/V [5] = molecular target: T3, BRD2 BD2 L/V (Homo sapiens, UniProt P25440, L383V); experiment: competitive AlphaLISA; assay type: binding
T3 sequence (P25440 344-455 L383V): as the sequence (P25440 344-455) above, with L40V counted along it

BRD3 BD1 WT = BRD3 BD1 WT (Homo sapiens, UniProt Q15059); experiment: competitive AlphaLISA; assay type: binding
Sequence of BRD3 BD1 WT (Q15059 24-144): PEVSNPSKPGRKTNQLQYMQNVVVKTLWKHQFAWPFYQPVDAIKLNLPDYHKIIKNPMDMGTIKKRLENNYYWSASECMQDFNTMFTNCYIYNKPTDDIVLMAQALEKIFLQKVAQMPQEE

BRD3 BD1 L/V [6] = molecular target: T4, BRD3 BD1 L/V (Homo sapiens, UniProt Q15059, L70V); experiment: competitive AlphaLISA; assay type: binding
T4 sequence (Q15059 24-144 L70V limits assumed): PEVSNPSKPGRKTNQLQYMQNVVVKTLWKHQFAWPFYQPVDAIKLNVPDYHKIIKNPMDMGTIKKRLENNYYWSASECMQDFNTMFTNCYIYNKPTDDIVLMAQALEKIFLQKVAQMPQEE

BRD3 BD2 WT [7] = molecular target: T5, BRD3 BD2 WT (Homo sapiens, UniProt Q15059); experiment: competitive AlphaLISA; assay type: binding
T5 sequence (Q15059 306-416): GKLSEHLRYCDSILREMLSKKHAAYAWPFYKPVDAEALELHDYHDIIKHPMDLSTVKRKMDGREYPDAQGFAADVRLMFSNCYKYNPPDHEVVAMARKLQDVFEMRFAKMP

BRD3 BD2 L/V [8] = molecular target: T6, BRD3 BD2 L/V (Homo sapiens, UniProt Q15059, L345V); experiment: competitive AlphaLISA; assay type: binding
T6 sequence (Q15059 306-416 L345V limits assumed): as the sequence (Q15059 306-416) above, with L40V counted along it

BRD4 BD1 WT [9] = molecular target: T7, BRD4 BD1 WT (Homo sapiens, UniProt O60885); experiment: competitive AlphaLISA; assay type: binding; conditions: AlphaLISA pIC50 Value BRD4 BD1 WT
BRD4 BD1 L/V [10] = molecular target: T8, BRD4 BD1 L/V (Homo sapiens, UniProt O60885, L94V); experiment: competitive AlphaLISA; assay type: binding; conditions: AlphaLISA pIC50 Value BRD4 BD1 L/V
BRD4 BD2 WT [11] = molecular target: T9, BRD4 BD2 WT (Homo sapiens, UniProt O60885); experiment: competitive AlphaLISA; assay type: binding
BRD4 BD2 L/V [12] = molecular target: T10, BRD4 BD2 L/V (Homo sapiens, UniProt O60885, L387V); experiment: competitive AlphaLISA; assay type: binding
BRDT BD1 WT = BRDT BD1 WT (Homo sapiens, UniProt Q58F21); experiment: competitive AlphaLISA; assay type: binding
BRDT BD1 L/V = BRDT BD1 L/V (Homo sapiens, UniProt Q58F21, L63V); experiment: competitive AlphaLISA; assay type: binding
BRDT BD2 WT = BRDT BD2 WT (Homo sapiens, UniProt Q58F21); experiment: competitive AlphaLISA; assay type: binding
BRDT BD2 L/V = BRDT BD2 L/V (Homo sapiens, UniProt Q58F21, L306V); experiment: competitive AlphaLISA; assay type: binding
in vitro = conditions: PAMPA, pH 7.4
Plasma Half-life = conditions: BALB/c, mouse, pH 7.4
Intrinsic Clearance = conditions: mouse liver microsomes
BRD2 BD1 WT [13] = molecular target: T1, BRD2 BD1 WT; experiment: ITC; assay type: binding
BRD2 BD1 L/V [14] = molecular target: T2, BRD2 BD1 L/V; experiment: ITC; assay type: binding
BRD2 BD2 L/V [15] = molecular target: T3, BRD2 BD2 L/V; experiment: ITC; assay type: binding
BRD3 BD1 L/V [16] = molecular target: T4, BRD3 BD1 L/V; experiment: ITC; assay type: binding
BRD3 BD2 WT [17] = molecular target: T5, BRD3 BD2 WT; experiment: ITC; assay type: binding
BRD3 BD2 L/V [18] = molecular target: T6, BRD3 BD2 L/V; experiment: ITC; assay type: binding
BRD4 BD1 WT [19] = molecular target: T7, BRD4 BD1 WT; experiment: ITC; assay type: binding
BRD4 BD1 L/V [20] = molecular target: T8, BRD4 BD1 L/V; experiment: ITC; assay type: binding
BRD4 BD2 WT [21] = molecular target: T9, BRD4 BD2 WT; experiment: ITC; assay type: binding
BRD4 BD2 L/V [22] = molecular target: T10, BRD4 BD2 L/V; experiment: ITC; assay type: binding
[23] = molecular target: WT somatic BET bromodomains; experiment: ITC; conditions: mean and SD of all somatic bromodomains
[24] = test system: L/V somatic BET bromodomains; experiment: ITC

C=CC[C@@H](C(=O)OC)[C@@H]1N=C(c2ccc(Cl)cc2)c2ccc(OC)cc2-n2c(C)nnc21 (relative stereo) [Compound 9]
AlphaLISA pIC50 ± SD WT [1]: 4.4 ± 0.1
AlphaLISA pIC50 ± SD Δ [2]: 1.3 ± 0.2
AlphaLISA pIC50 ± SD L/V [2]: 5.7 ± 0.2
IC50 (BRD2 BD1 WT [3]): 50.1 µM
IC50 (BRD2 BD1 L/V [4]): 3.98 µM
IC50 (BRD2 BD2 WT): 39.8 µM
IC50 (BRD2 BD2 L/V [5]): 1.26 µM
IC50 (BRD3 BD1 WT): 31.6 µM
IC50 (BRD3 BD1 L/V [6]): 1.58 µM
IC50 (BRD3 BD2 WT [7]): 50.1 µM
IC50 (BRD3 BD2 L/V [8]): 1 µM
IC50 (BRD4 BD1 WT [9]): 39.8 µM
IC50 (BRD4 BD1 L/V [10]): 3.16 µM
IC50 (BRD4 BD2 WT [11]): 63.1 µM
IC50 (BRD4 BD2 L/V [12]): 3.16 µM
IC50 (BRDT BD1 WT): 63.1 µM
IC50 (BRDT BD1 L/V): 6.31 µM
IC50 (BRDT BD2 WT): 50.1 µM
IC50 (BRDT BD2 L/V): 5.01 µM
Papp (in vitro): 13.6 ×10⁻⁶ cm/s
half-life at 50 µM (Plasma Half-life): > 3 h
CL int (Intrinsic Clearance): 9.4 ml min^–1 g^–1

C=CC[C@@H](C(=O)NCC)[C@@H]1N=C(c2ccc(Cl)cc2)c2cc(OC)ccc2-n2c(C)nnc21 (relative stereo) [Compound 18]
AlphaLISA pIC50 ± SD WT [1]: 4.3 ± 0.1
AlphaLISA pIC50 ± SD Δ [2]: 1.5 ± 0.1
AlphaLISA pIC50 ± SD L/V [2]: 5.9 ± 0.2
IC50 (BRD2 BD1 WT [3]): 50.1 µM
IC50 (BRD2 BD1 L/V [4]): 2.51 µM
IC50 (BRD2 BD2 WT): 50.1 µM
IC50 (BRD2 BD2 L/V [5]): 1 µM
IC50 (BRD3 BD1 WT): 31.6 µM
IC50 (BRD3 BD1 L/V [6]): 0.794 µM
IC50 (BRD3 BD2 WT [7]): 50.1 µM
IC50 (BRD3 BD2 L/V [8]): 1.26 µM
IC50 (BRD4 BD1 WT [9]): 39.8 µM
IC50 (BRD4 BD1 L/V [10]): 1.26 µM
IC50 (BRD4 BD2 WT [11]): 63.1 µM
IC50 (BRD4 BD2 L/V [12]): 2 µM
IC50 (BRDT BD1 WT): 79.4 µM
IC50 (BRDT BD1 L/V): 5.01 µM
IC50 (BRDT BD2 WT): 79.4 µM
IC50 (BRDT BD2 L/V): 5.01 µM
Papp (in vitro): 5.2 ×10⁻⁶ cm/s
half-life at 50 µM (Plasma Half-life): > 3 h
CL int (Intrinsic Clearance): 2.6 ml min^–1 g^–1

CCNC(=O)[C@H](C)[C@@H]1N=C(c2ccc(Cl)cc2)c2ccc(OC)cc2-n2c(C)nnc21 (relative stereo) [Compound 21]
AlphaLISA pIC50 ± SD WT [1]: 4.7 ± 0.3
AlphaLISA pIC50 ± SD Δ [2]: 1.3 ± 0.2
AlphaLISA pIC50 ± SD L/V [2]: 6.0 ± 0.2
IC50 (BRD2 BD1 WT [3]): 39.8 µM
IC50 (BRD2 BD1 L/V [4]): 2 µM
IC50 (BRD2 BD2 WT): 15.8 µM
IC50 (BRD2 BD2 L/V [5]): 1 µM
IC50 (BRD3 BD1 WT): 5.01 µM
IC50 (BRD3 BD1 L/V [6]): 0.501 µM
IC50 (BRD3 BD2 WT [7]): 15.8 µM
IC50 (BRD3 BD2 L/V [8]): 0.501 µM
IC50 (BRD4 BD1 WT [9]): 25.1 µM
IC50 (BRD4 BD1 L/V [10]): 1 µM
IC50 (BRD4 BD2 WT [11]): 31.6 µM
IC50 (BRD4 BD2 L/V [12]): 1.26 µM
IC50 (BRDT BD1 WT): 50.1 µM
IC50 (BRDT BD1 L/V): 2.51 µM
IC50 (BRDT BD2 WT): 25.1 µM
IC50 (BRDT BD2 L/V): 1.58 µM
Kd (BRD2 BD1 WT [13]): > 60 µM
Kd (BRD2 BD1 L/V [14]): 0.99 µM
ΔH BRD2 BD1 L/V (BRD2 BD1 L/V [14]; ITC): -8.8 kcal/mol
N BRD2 BD1 L/V (BRD2 BD1 L/V [14]; ITC stoichiometry): 0.97
Kd (BRD2 BD2 L/V [15]): 0.23 µM
ΔH BRD2 BD2 L/V (BRD2 BD2 L/V [15]; ITC): -4.8 kcal/mol
N BRD2 BD2 L/V (BRD2 BD2 L/V [15]; ITC stoichiometry): 0.84
Kd (BRD3 BD1 L/V [16]): 0.41 µM
ΔH BRD3 BD1 L/V (BRD3 BD1 L/V [16]; ITC): -10.7 kcal/mol
N BRD3 BD1 L/V (BRD3 BD1 L/V [16]; ITC stoichiometry): 0.92
Kd (BRD3 BD2 WT [17]): 11 µM
ΔH BRD3 BD2 WT (BRD3 BD2 WT [17]; ITC): -4.5 kcal/mol
N BRD3 BD2 WT (BRD3 BD2 WT [17]; ITC stoichiometry): 0.46
Kd (BRD3 BD2 L/V [18]): 0.8 µM
ΔH BRD3 BD2 L/V (BRD3 BD2 L/V [18]; ITC): -6.7 kcal/mol
N BRD3 BD2 L/V (BRD3 BD2 L/V [18]; ITC stoichiometry): 0.90
Kd (BRD4 BD1 WT [19]): 39 µM
ΔH BRD4 BD1 WT (BRD4 BD1 WT [19]; ITC): -3.3 kcal/mol
ΔH BRD4 BD1 L/V (BRD4 BD1 L/V [20]; ITC): -5.9 kcal/mol
N BRD4 BD1 L/V (BRD4 BD1 L/V [20]; ITC stoichiometry): 0.88
Kd (BRD4 BD1 L/V [20]; Kd BRD4 BD1 L/V, ITC, 30°C): 0.37 µM
Kd (BRD4 BD2 WT [21]): > 60 µM
Kd (BRD4 BD2 L/V [22]): 0.32 µM
ΔH BRD4 BD2 L/V (BRD4 BD2 L/V [22]; ITC): -4.4 kcal/mol
N BRD4 BD2 L/V (BRD4 BD2 L/V [22]; ITC stoichiometry): 1.06
ITC pKd ± SD WT [23]: 4.5 ± 0.4
ITC pKd ± SD Δ ([24]; L/V minus WT): 1.8 ± 0.5
ITC pKd ± SD L/V ([24]; mean and SD of all somatic bromodomains): 6.3 ± 0.2
Papp (in vitro): 4 ×10⁻⁶ cm/s
half-life at 50 µM (Plasma Half-life): > 3 h
CL int (Intrinsic Clearance): 1.5 ml min^–1 g^–1
